Test results: patent publication US20110071094A1, “(D)-ALLOSE INDUCING PROGRAMMED CELL DEATH IN HORMONE REFRACTORY PROSTATE CANCER LINES” (INDUSTRY-ACADEMIC COOPERATION FOUDATION, GYEONGSANG …, priority 2008, published 2011)

Tests used:
DU145 cell line = assay: Cell cycle analysis, PI staining, flow cytometry; format: cell-based, human; conditions: for cells in G0-G1 phase: 48 h, untreated control 31.9%
Description: DU145 cell line (1×10^6 cells in triplicate culture plates) was treated with D-allose (0, 20 and 40 mM) for 48 and 72 h. The cells were treated with trypsin and harvested with PBS, centrifuged and resuspended the pellet in cold PBS-methanol mixture (1:9) for 1 h at 4° C. The cells were centrifuged, pellet washed and resuspended with PBS again, and incubated with RNAse (20 mg/ml in PBS) for 30 min at 37° C. The cells were chilled over ice and stained with PI (1 mg/ml in PBS) for 1 h and analyzed by flow cytometry using CellQuest software, version 3.0, performed on a FACSCalibur, fluorescence (FL2-A) detector equipped with 488 nm argon laser light source and 623 nm band pass filter (Becton Dickinson, San Jose, Calif., USA). Total 10,000 cells were acquired for analysis by CellQuest software and the quantification of FACS data was performed using ModFit LT software, version 2.0, (Becton Dickinson, San Jose, Calif., USA). The cell population was gated according to the characteristics side scatter and forward scatter intensities of FACS. The number of all gated living cells was taken as 100%, from which the percentage of cells in G0-G1, S and G2-M phase was calculated and presented in the right side of the histogram.

Bax = assay: Western blot analysis of Bax protein in DU145; format: cell-based, human; conditions: DU145, 40 mM, 72 h
Description: (§1) After 0, 20 and 40 mM of D-allose treatments for 72 h, DU145 cell line (1×10^6 cells in triplicate culture plates) was harvested into cell lysis buffer (Cell Signaling, Danvers, Mass., USA) supplemented with 1 mM PMSF. The cells were then sonicated, centrifuged and protein concentration was measured by Bradford assay with the Bio-Rad protein assay solution using bovine serum albumin (BSA) as standard. Proteins (30 μg) were separated on a 12.5% SDS-PAGE under reducing conditions and transferred onto a PVDF membrane (Santa Cruz Biotechnology, Santa Cruz, Calif., USA). Prestained protein marker, broad range: 6-175 kDa (New England Biolabs Inc., Ipswich, Mass., USA) run in parallel for detection of the molecular weights of the proteins. Membrane was blocked with 5% (w/v) skimmed milk in order to reduce non-specific binding and immunoblotting was performed using rabbit derived anti-Bcl-2, anti-Bax, anti-Caspase 3 and anti-PARP antibodies (1:500; Santa Cruz Biotechnology, Santa Cruz, Calif., USA). […] Membrane was probed with a goat derived horseradish peroxidase-conjugated anti-rabbit IgG (1:1000; Santa Cruz Biotechnology, Santa Cruz, Calif., USA), and proteins were detected by the enhanced chemiluminescence (ECL) detection system according to the vendor's protocol (Amersham Biosciences, Piscataway, N.J., USA) followed by X-ray exposure. […]

PARP = assay: Western blot analysis of PARP protein in DU145; format: cell-based, human; conditions: DU145, 0, 20 and 40 mM, 72 h
Description: as §1

PrEC cell line = assay: Cell viability / cell growth, MTT assay; format: cell-based; conditions: human NPE cell line PrEC, 0-40 mM
Description: DU145 (human HRPC cell line, derived from a patient with brain metastasis) and PrEC (human normal prostate epithelial cell line) cell lines were obtained from Korea Cell Line Bank (KCLB, Seoul, South Korea). DU145 and PrEC cell lines were grown in triplicate culture plates containing RPMI-1640 (HyClone, Logan, Utah, USA) and Dulbecco's Modified Eagle's Medium (HyClone, Logan, Utah, USA) respectively, and kept in a humidified atmosphere containing 5% CO2 at 37° C. for 72 h. The media were supplemented with 10% heat-inactivated fetal bovine serum (HyClone, Logan, Utah, USA), 1% antibio-antimicotic solution containing 10,000 units/ml of penicillin and 10 mg/ml of streptomycin (HyClone, Logan, Utah, USA), HEPES, sodium bicarbonate, p-aminobenzoic acid and insulin (complete culture media). […]
The logarithmic growth phase of DU145 and PrEC cell lines were taken for growth assay using 3-[4,5-dimethylthiazol-2-yl]-2,5-diphenyl tetrazolium bromide (MTT). […] After incubation for the specified time at 37° C. in a humidified 5% CO2 incubator, cell viability was determined. […] To achieve solubilization of formazan crystal formed in viable cells, DMSO was added to each well, and the absorbance was recorded on a microplate reader at 595 nm wavelength. The effect of sugars on growth inhibition was assessed as percent cell viability where control cells were taken as 100% viable.

Bcl-2 = assay: Western blot analysis of Bcl-2 protein in DU145; format: cell-based, human; conditions: DU145, 20 and 40 mM, 72 h
Description: as §1

cyt C = assay: Mitochondrial cyt C release and nuclear morphology, immunofluorescence; format: cell-based, human; conditions: DU145, 20 and 40 mM, 48 h
Description: The in situ analysis of cyt C was carried out by immunofluorescence technique. […] Cyt C was detected by using mouse anti-cyt C antibody and rabbit anti-mouse FITC-labeled antibody (1:250 and 1:200, respectively; Santa Cruz Biotechnology, Santa Cruz, Calif., USA). DU145 cell line treated with FITC-labeled secondary antibody alone was considered as negative control. Subsequently, chromatin was stained with PI (1 mg/ml in PBS) for 20 min in dark and slides were mounted with Prolong Antifade reagent (Molecular Probes, Eugene, Oreg., USA). Cyt C (green) and chromatin (red) staining patterns were acquired by use of a confocal laser scanning microscope (Fluoview FV 1000, Olympus, Japan).

Structure (SMILES): O=C[C@H](O)[C@H](O)[C@H](O)[C@H](O)CO [D-allose]
- cells in G0-G1 phase (DU145 cell line; DU145, 20 mM): 48.7%
- cells in G0-G1 phase (DU145 cell line; DU145, 40 mM): 57.5%
- cell number in G2-M phase and S phase (DU145 cell line; DU145, 48 h): concomitant decrease
- Bax protein expression (Bax): remarkably increased
- cleaved PARP product (PARP): concomitant increase
- full length PARP protein expression (PARP): remarkable dose-dependent decrease
- effect on growth of PrEC cell line (PrEC cell line): no remarkable effect
- Bcl-2 protein expression (Bcl-2): significantly decreased
- cyt C release from mitochondria and chromatin condensation (cyt C): release of cyt C from mitochondria into cytosol and chromatin condensation
